Reference: PMC4076210, “Discovery of Novel AKT Inhibitors with Enhanced Anti-Tumor Effects in Combination with the MEK Inhibitor” (PLoS ONE, 2014)
Values joined by “and” are separate entries in the source; they are usually repeats but may differ in a detail not shown here. Equal values may be shown once. Read-outs that look alike come from different tables or passages of the source.

Legend:
[1] = molecular target: PKCβ1 (Homo sapiens, UniProt P05771); assay: Kinase IC50 assay; type: biochemical
[2] = molecular target: T1, TAO2(h) (Homo sapiens, UniProt Q9UL54); assay: Kinase panel; type: biochemical
T1 construct: purchased Millipore KinaseProfiler
T1 sequence (Q9UL54 1-1235): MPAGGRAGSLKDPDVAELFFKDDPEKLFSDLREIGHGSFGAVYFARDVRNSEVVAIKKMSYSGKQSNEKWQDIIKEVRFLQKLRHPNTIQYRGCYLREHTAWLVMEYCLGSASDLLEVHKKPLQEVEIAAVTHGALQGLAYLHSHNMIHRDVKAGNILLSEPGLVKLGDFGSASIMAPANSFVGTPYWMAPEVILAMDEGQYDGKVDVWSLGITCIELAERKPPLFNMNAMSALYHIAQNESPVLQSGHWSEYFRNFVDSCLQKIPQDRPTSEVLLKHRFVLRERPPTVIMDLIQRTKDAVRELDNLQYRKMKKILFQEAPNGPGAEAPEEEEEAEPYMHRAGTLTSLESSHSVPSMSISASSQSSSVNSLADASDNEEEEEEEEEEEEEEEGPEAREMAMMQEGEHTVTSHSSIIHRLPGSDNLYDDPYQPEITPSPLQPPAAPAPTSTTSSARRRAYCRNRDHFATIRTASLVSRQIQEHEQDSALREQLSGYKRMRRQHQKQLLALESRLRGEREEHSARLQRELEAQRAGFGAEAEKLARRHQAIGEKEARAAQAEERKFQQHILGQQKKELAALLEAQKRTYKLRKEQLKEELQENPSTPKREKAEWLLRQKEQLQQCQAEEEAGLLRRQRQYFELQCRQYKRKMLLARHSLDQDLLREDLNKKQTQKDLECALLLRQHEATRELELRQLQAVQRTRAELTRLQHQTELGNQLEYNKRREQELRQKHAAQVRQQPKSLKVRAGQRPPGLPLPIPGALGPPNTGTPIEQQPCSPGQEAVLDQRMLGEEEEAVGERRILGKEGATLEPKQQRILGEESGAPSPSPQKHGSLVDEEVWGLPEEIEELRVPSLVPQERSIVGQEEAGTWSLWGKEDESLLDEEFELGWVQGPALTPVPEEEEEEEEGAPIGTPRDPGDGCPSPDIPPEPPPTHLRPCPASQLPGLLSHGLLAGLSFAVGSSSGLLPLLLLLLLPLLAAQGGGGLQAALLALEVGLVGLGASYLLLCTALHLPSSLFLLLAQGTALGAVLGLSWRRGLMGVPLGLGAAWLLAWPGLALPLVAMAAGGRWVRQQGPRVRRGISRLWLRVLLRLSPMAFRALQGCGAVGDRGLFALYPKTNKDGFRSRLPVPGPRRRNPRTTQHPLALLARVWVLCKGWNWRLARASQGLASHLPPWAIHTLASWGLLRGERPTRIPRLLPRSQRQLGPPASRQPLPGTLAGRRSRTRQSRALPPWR

[3] = molecular target: T2, FGFR1(h) (Homo sapiens, UniProt P11362); assay: Kinase panel; type: biochemical
T2 construct: purchased Millipore KinaseProfiler

[4] = molecular target: T3, TBK1(h) (Homo sapiens, UniProt Q9UHD2); assay: Kinase panel; type: biochemical
T3 construct: purchased Millipore KinaseProfiler
T3 sequence (Q9UHD2 1-729): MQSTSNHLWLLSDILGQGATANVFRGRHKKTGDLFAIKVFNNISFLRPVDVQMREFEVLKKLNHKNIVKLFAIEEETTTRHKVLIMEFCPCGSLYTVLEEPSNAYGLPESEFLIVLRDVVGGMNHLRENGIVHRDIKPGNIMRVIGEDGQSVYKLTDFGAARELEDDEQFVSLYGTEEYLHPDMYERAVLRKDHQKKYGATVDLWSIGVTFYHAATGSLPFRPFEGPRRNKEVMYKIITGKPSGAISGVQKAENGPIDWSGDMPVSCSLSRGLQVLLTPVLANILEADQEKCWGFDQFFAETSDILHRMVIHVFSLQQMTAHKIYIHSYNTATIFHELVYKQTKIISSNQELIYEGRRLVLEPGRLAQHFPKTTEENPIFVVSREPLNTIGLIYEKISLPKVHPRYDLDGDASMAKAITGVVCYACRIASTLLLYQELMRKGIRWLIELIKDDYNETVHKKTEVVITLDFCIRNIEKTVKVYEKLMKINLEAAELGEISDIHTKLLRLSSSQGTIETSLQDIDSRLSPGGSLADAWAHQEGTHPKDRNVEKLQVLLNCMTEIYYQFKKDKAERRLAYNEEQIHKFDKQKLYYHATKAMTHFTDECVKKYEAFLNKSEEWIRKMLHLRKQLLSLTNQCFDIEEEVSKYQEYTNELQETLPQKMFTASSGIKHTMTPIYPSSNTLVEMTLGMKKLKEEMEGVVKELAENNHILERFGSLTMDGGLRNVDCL

[5] = molecular target: T4, PAR-1Bα(h) (Homo sapiens, UniProt Q7KZI7); assay: Kinase panel; type: biochemical
T4 construct: purchased Millipore KinaseProfiler

[6] = molecular target: T5, PDGFRβ(h) (Homo sapiens, UniProt P09619); assay: Kinase panel; type: biochemical
T5 construct: purchased Millipore KinaseProfiler

[7] = molecular target: T6, MSK2(h) (Homo sapiens, UniProt O75676); assay: Kinase panel; type: biochemical
T6 construct: purchased Millipore KinaseProfiler

[8] = molecular target: T7, MRCKβ(h) (Homo sapiens, UniProt Q9Y5S2); assay: Kinase panel; type: biochemical
T7 construct: purchased Millipore KinaseProfiler

[9] = molecular target: T8, PKBβ(h) (Homo sapiens, UniProt P31751); assay: Kinase panel; type: biochemical
T8 construct: purchased Millipore KinaseProfiler

[10] = tested on: FOXO_GFP translocation in MDA-MB-468; assay: FOXO3A-GFP translocation assay; type: cell-based, human; settings: MDA-MB-468, 1 h, mean ± std dev
Procedure: MDA-MB-468 cells stably transfected with FOXO3A-GFP were plated at 1000 cells/96 well and allowed to adhere overnight. Cells were treated with DMSO or AKT inhibitor (0-10 µM) for 1 h. Plates were centrifuged at 1200 rpm for 10 min, and the medium aspirated. Cells were fixed with 200 μL of 4% paraformaldehyde (Alfa Aesar, Wood Hill, MA), and DAPI (80 ng/mL, Roche, Branchburg, NJ) was added to each well and incubated for 20 min at room temperature. […] Five fields per well were imaged to achieve ≥250 nuclei count per well. A ratio of nuclear to cytoplasmic intensity was calculated by the software. The formula used to calculate percentage nuclear translocation = (Fluorescence sample- Fluorescence DMSO)/ (Fluorescence 10 µM treatment sample- Fluorescence DMSO)*100. The calculation produces a scale of 0-100% with 100% being 10 µM of compound treatment and 0 being DMSO treatment. The normalized values were then plotted in the XLFit 4 parameter curve fitting program to generate EC50 values.

[11] = molecular target: T9, PKBα(h) (Homo sapiens, UniProt P31749); assay: Kinase panel; type: biochemical
T9 construct: purchased Millipore KinaseProfiler

T4 sequence (Q7KZI7 1-725 isoform Q7KZI7-4): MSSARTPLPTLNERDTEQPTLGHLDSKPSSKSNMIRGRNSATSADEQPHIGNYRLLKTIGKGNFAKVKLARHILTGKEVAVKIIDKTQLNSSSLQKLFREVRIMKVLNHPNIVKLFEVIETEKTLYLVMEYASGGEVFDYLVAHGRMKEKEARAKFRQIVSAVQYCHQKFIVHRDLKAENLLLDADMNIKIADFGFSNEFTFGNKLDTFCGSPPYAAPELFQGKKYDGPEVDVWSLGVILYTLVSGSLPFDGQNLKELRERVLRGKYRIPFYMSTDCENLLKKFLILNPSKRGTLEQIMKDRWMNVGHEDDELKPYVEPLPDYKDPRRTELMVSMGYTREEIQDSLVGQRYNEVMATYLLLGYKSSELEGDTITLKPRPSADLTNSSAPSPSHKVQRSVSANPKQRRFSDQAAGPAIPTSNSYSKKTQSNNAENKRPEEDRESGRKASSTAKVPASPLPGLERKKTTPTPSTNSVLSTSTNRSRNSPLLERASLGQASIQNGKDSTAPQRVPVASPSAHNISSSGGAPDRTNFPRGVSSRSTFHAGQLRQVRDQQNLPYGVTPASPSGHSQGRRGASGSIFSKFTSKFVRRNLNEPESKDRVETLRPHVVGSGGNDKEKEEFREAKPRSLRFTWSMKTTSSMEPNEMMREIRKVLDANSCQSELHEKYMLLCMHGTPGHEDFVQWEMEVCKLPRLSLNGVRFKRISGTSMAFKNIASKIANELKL
T6 sequence (O75676 whole entry): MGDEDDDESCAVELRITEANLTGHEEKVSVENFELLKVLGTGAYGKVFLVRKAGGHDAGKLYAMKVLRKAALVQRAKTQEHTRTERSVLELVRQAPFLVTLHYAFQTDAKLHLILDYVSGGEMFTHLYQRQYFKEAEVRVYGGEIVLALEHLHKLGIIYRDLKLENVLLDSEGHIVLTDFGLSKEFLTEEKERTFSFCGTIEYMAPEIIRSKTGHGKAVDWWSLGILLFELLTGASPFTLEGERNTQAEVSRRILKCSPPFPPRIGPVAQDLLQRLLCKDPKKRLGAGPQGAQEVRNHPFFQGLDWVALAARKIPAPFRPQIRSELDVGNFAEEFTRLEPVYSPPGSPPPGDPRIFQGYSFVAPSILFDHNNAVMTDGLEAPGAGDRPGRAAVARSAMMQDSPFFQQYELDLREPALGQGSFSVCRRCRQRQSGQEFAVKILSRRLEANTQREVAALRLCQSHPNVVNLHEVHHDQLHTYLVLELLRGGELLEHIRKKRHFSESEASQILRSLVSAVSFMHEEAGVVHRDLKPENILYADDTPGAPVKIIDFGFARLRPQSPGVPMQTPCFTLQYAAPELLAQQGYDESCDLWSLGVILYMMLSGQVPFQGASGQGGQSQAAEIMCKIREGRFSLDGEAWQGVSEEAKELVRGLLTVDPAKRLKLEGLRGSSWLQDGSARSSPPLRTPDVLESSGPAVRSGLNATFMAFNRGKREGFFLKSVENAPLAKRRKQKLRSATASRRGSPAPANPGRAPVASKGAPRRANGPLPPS
T2 sequence (P11362 22-822): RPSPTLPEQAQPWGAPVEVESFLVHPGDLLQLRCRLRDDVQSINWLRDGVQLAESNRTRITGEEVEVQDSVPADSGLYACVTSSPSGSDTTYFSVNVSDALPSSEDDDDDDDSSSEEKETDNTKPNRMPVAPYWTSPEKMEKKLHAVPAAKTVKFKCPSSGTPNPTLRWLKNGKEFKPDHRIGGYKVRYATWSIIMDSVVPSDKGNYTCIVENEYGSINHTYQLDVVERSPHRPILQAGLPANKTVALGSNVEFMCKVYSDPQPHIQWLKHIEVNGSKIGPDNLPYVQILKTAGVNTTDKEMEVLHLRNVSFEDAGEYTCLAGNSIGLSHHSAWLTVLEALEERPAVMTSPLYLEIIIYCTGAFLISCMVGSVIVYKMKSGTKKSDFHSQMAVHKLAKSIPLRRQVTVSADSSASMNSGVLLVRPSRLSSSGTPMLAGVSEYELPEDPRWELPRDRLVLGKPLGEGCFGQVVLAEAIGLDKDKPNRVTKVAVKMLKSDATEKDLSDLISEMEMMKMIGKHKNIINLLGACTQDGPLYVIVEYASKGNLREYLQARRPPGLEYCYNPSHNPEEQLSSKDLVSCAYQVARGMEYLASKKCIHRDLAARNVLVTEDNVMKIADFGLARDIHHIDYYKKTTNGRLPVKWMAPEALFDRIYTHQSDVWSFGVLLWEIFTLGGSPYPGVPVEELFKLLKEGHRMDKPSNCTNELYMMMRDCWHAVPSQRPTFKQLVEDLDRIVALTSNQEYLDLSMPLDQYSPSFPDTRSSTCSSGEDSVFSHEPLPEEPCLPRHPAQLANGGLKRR
T7 sequence (Q9Y5S2 whole entry): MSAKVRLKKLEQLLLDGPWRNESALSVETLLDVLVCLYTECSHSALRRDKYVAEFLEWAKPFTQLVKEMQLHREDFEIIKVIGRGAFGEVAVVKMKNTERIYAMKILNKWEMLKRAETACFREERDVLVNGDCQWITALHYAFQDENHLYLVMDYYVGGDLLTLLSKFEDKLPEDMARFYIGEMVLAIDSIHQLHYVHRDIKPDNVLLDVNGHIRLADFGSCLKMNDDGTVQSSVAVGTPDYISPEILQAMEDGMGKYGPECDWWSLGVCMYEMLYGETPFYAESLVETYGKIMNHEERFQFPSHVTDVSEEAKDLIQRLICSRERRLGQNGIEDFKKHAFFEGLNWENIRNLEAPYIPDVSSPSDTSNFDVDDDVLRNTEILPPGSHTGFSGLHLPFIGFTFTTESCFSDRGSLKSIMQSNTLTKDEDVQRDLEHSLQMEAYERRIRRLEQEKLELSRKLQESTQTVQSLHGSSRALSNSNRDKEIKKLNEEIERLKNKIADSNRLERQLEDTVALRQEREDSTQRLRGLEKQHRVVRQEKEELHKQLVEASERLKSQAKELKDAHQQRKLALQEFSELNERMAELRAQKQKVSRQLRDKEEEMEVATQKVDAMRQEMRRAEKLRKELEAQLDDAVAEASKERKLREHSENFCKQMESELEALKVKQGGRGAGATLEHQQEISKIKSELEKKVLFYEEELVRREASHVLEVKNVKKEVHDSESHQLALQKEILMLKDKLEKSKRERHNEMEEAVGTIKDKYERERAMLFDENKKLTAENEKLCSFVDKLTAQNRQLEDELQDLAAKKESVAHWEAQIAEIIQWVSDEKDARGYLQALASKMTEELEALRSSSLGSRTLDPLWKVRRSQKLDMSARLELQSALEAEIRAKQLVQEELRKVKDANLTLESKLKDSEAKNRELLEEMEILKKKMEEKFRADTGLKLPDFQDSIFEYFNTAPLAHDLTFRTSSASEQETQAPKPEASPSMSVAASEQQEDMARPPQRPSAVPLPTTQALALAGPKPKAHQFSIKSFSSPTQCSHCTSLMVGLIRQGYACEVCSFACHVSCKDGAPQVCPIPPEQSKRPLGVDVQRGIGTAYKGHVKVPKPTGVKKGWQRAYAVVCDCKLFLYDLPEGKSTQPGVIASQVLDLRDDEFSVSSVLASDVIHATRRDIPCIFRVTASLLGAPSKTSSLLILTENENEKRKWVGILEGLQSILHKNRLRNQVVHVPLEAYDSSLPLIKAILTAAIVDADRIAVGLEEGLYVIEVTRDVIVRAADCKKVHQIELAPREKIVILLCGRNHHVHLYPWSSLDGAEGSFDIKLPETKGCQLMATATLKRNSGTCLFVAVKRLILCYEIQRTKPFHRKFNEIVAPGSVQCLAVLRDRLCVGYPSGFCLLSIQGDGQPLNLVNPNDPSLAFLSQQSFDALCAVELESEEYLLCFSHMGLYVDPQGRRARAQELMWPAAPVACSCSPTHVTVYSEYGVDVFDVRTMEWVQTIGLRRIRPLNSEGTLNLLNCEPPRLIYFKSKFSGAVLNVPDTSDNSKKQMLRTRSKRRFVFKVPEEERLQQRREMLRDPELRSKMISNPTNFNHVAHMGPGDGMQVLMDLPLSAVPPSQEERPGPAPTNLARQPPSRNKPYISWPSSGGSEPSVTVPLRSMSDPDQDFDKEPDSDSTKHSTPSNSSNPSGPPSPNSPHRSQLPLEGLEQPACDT
T5 sequence (P09619 33-1106): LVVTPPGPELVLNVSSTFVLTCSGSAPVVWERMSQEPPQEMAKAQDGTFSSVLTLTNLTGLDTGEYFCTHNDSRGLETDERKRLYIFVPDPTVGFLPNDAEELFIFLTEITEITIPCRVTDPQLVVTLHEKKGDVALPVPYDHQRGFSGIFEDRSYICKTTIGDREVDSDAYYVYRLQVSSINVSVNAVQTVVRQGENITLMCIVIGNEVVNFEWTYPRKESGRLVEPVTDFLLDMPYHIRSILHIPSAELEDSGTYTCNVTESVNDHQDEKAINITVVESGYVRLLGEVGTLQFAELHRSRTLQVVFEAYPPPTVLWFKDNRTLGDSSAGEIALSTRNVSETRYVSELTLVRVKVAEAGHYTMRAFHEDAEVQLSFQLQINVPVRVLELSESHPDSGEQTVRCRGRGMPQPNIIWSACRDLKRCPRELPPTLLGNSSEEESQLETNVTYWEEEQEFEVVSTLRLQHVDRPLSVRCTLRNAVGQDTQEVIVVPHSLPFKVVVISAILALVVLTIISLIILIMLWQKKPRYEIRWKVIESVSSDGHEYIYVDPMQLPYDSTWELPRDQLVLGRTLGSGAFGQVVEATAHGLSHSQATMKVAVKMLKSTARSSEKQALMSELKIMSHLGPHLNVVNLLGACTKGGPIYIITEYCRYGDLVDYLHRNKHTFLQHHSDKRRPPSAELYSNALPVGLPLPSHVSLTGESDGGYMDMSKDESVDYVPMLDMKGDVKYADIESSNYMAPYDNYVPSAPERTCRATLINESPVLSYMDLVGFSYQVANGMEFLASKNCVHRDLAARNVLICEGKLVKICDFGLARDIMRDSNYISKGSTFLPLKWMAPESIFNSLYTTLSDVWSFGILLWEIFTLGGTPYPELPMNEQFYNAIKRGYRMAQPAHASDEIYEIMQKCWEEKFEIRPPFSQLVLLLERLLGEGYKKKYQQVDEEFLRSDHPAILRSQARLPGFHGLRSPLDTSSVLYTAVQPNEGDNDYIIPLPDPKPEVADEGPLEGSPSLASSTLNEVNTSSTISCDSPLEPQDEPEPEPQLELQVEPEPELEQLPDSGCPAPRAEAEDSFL

SMILES: Cn1ncc(Cl)c1-c1cc(C(=O)N[C@H](CN)Cc2cccc(F)c2)sc1Cl [GSK2110183]
- IC50 [1]: 430 nM
- inhibition at 0.5 µM [2]: -7%
- inhibition at 10 µM [2]: 12%
- inhibition at 0.5 µM [3]: -8%
- inhibition at 10 µM [3]: -5%
- inhibition at 0.5 µM [4]: 1%
- inhibition at 10 µM [4]: 2%
- inhibition at 0.5 µM [5]: 15%
- inhibition at 10 µM [5]: 84%
- inhibition at 0.5 µM [6]: 2%
- inhibition at 10 µM [6]: 5%
- inhibition at 0.5 µM [7]: 85%
- inhibition at 10 µM [7]: 97%
- inhibition at 0.5 µM [8]: -4%
- inhibition at 10 µM [8]: 11%

SMILES: Cn1ncc(Cl)c1-c1cc(C(=O)N[C@H](CN)Cc2ccc(F)c(F)c2)oc1Cl [GSK2141795]
- inhibition at 0.5 µM ([2]; 0.5 µM, read-out: % Inhibition): -5%
- inhibition at 10 µM ([2]; 10 µM, read-out: % Inhibition): -2%
- inhibition at 0.5 µM ([9]; 0.5 µM): 95%
- inhibition at 10 µM ([9]; 10 µM): 99%
- inhibition at 0.5 µM ([3]; 0.5 µM, read-out: % Inhibition): -15%
- inhibition at 10 µM ([3]; 10 µM, read-out: % Inhibition): -6%
- inhibition at 0.5 µM ([4]; 0.5 µM, read-out: % Inhibition): 1%
- inhibition at 10 µM ([4]; 10 µM, read-out: % Inhibition): 4%
- IC50 (nM) / EC50, FOXO_GFP translocation [10]: 47 nM and 47 ± 37 nM
- inhibition at 0.5 µM ([5]; 0.5 µM, read-out: % Inhibition): 24%
- inhibition at 10 µM ([5]; 10 µM, read-out: % Inhibition): 83%
- inhibition at 0.5 µM ([6]; 0.5 µM, read-out: % Inhibition): -7%
- inhibition at 10 µM ([6]; 10 µM, read-out: % Inhibition): -4%
- inhibition at 0.5 µM ([7]; 0.5 µM, read-out: % Inhibition): 98%
- inhibition at 10 µM ([7]; 10 µM, read-out: % Inhibition): 102%
- inhibition at 0.5 µM ([11]; 0.5 µM): 99%
- inhibition at 10 µM ([11]; 10 µM): 99%
- inhibition at 0.5 µM ([8]; 0.5 µM, read-out: % Inhibition): -8%
- inhibition at 10 µM ([8]; 10 µM, read-out: % Inhibition): 3%
